These results are taken from US9562017B2, “Hydrogen sulfate salt” (Array BioPharma Inc., priority 2005, dated 2017).

Molecules are shown by their SMILES. Where a name gives a salt, the structure may show the parent alone.

One series is described as follows: BCS classification. Conditions: free base. Type of series: physicochemical. An excerpt: BCS Class 4 compounds normally have low bioavailability due to both low dissolution rate and permeability, and the limitation of permeability on absorption means that such salts would not usually be expected exert a substantial impact on absorption (See for example: Dressman et al. (2001) Pharm Tech. July: 68).

The nature of series [1]: Plasma levels of Compound 1 in fasted dogs after oral dispersion doses, salt versus free base. It counts as in vivo, beagle dogs. Particulars: crystalline salt compared to the free base and other salts. The procedure: Single doses of 150 mg were administered orally to fasted beagle dogs weighing 12-17 kg and about 2 to 6 years old on each of three dosing days. Each dosing day was 1 week apart.
All formulations were prepared extemporaneously just prior to dosing by adding 7.5 mL of the appropriate dispersing solution via a 10 mL disposable syringe, to vials containing 150 mg free base equivalents of the appropriate drug form, capping and vortex mixing for 30 seconds to form a dispersion.
The dispersion was removed from the vial using the disposable syringe and dosed to the animal via a gavage tube positioned into the stomach. The vials were rinsed twice by adding, for each of the two rinses, a separate 15 mL aliquot of water (total rinse volume=30 mL) via a 20 mL disposable syringe, capping, vortex mixing for 5 seconds, removing the wash solution from the vial using the disposable syringe and dosing to the animal via the gavage tube.
Dogs were fed about 400 g of Special Diet Services Laboratory Diet A each day and allowed water ad libitum. Whole blood (2 mL) in lithium heparin tubes were taken from the jugular vein immediately prior to dosing and at 0.5, 1, 2, 3, 4, 5, 6, 8, 12, 18, 24, 36 and 48 hours. The blood was centrifuged at 3000 rpm for 15 minutes and plasma was removed into plain blood tubes and the plasma stored at −20° C. until analysis. […]

The nature of series [2]: Dissolution rate of the crystalline salt. It counts as physicochemical. Conditions: crystalline salt compared to the free base and other salts.

Regarding `Cn1cnc2c(F)c(Nc3ccc(Br)cc3Cl)c(C(=O)NOCCO)cc21` [Compound 1, 6-(4-bromo-2-chloro-phenylamino)-7-fluoro-3-methyl-3H-benzoimidazole-5-carboxylic acid (2-hydroxy-ethoxy)-amide], the “BCS Class” value in “BCS classification” is listed as “BCS Class 4”.
Turning to `Cn1cnc2c(F)c(Nc3ccc(Br)cc3Cl)c(C(=O)NOCCO)cc21` [hydrogen sulfate salt, 6-(4-bromo-2-chloro-phenylamino)-7-fluoro-3-methyl-3H-benzoimidazole-5-carboxylic acid (2-hydroxy-ethoxy)-amide hydrogen sulfate], in series [1], the bioavailability entry is “particularly high”. Further, the dissolution rate result in series [2] is listed as “particularly high”.
